From ChEMBL document CHEMBL1141148, “Antidiabetic activity of passive nonsteroidal glucocorticoid receptor modulators” (J Med Chem, 2005)

Key:
[1] = Glycogen levels in ob/ob mice after 14 days of oral dose at 100 mpk b.i.d.; type: ADME; details: mouse, in vivo, 100 mg/kg, 336 h
[2] = Compound level in plasma in SD rats after 7 hr of 5 mg/kg i.v. dose; type: ADME, organism-based; design: dose 5 mg/kg, route intravenous; details: Sprague-Dawley, rat, iv, read-out: Level
[3] = Compound level in liver in ob/ob mice after 13 days of 100 mpk oral dose of compound; type: ADME; details: mouse, 100 mg/kg, read-out: Level
[4] = Area under the concentration-time curve in SD rats after 5 mg/kg oral dose; type: ADME, organism-based; design: dose 5 mg/kg, route oral; details: rat, in vivo
Mus musculus [5] = species on record: Mus musculus; assay: Initial weight of the ob/ob mice before oral treatment at 30 mpk b.i.d. for 14 days; type: functional
[6] = Half life period of the compound in human hepatocytes was determined; type: ADME, cell-based, Liver, Hepatocyte
[7] = Compound level in plasma in SD rats after 1 hr of 5 mg/kg i.v. dose; type: ADME, organism-based; design: dose 5 mg/kg, route intravenous; details: Sprague-Dawley, rat, iv, read-out: Level
[8] = Cholesterol levels in ob/ob mice after 30 days of oral dose at 30 mpk b.i.d.; type: ADME; details: mouse, in vivo, 30 mg/kg, 720 h
[9] = Triglyceride levels in ob/ob mice after 30 days of oral dose at 30 mpk b.i.d.; type: ADME; details: mouse, in vivo, 30 mg/kg, 720 h
[10] = Half life period of the compound in human liver microsomes was determined; type: ADME, Microsome
[11] = Compound level in liver in SD rats after 1 hr of 5 mg/kg i.v. dose; type: ADME, organism-based; design: dose 5 mg/kg, route intravenous; details: Sprague-Dawley, rat, iv, read-out: Level
[12] = Glycogen levels in ob/ob mice after 14 days of oral dose at 30 mpk b.i.d.; type: ADME; details: mouse, in vivo, 30 mg/kg, 336 h
[13] = Oral bioavailability in SD rats after 5 mg/kg oral dose; type: ADME, organism-based; details: Sprague-Dawley, rat, in vivo
[14] = HbA1c levels in ob/ob mice after 30 days of oral dose at 30 mpk b.i.d.; type: ADME; details: mouse, in vivo, 30 mg/kg, 720 h
[15] = Free fatty acid (FFA) levels in ob/ob mice after 14 days of oral dose at 100 mpk b.i.d.; type: ADME; details: mouse, in vivo, 100 mg/kg, 336 h
Mus musculus [16] = species on record: Mus musculus; assay: Final weight of the ob/ob mice after 14 days of oral treatment at 100 mpk b.i.d.; type: functional
[17] = Compound level in liver in SD rats after 7 hr of 5 mg/kg i.v. dose; type: ADME, organism-based; design: dose 5 mg/kg, route intravenous; details: Sprague-Dawley, rat, iv, read-out: Level
Androgen receptor = biological target: T1, Androgen receptor (Homo sapiens, UniProt P10275)
T1 sequence (P10275 whole entry): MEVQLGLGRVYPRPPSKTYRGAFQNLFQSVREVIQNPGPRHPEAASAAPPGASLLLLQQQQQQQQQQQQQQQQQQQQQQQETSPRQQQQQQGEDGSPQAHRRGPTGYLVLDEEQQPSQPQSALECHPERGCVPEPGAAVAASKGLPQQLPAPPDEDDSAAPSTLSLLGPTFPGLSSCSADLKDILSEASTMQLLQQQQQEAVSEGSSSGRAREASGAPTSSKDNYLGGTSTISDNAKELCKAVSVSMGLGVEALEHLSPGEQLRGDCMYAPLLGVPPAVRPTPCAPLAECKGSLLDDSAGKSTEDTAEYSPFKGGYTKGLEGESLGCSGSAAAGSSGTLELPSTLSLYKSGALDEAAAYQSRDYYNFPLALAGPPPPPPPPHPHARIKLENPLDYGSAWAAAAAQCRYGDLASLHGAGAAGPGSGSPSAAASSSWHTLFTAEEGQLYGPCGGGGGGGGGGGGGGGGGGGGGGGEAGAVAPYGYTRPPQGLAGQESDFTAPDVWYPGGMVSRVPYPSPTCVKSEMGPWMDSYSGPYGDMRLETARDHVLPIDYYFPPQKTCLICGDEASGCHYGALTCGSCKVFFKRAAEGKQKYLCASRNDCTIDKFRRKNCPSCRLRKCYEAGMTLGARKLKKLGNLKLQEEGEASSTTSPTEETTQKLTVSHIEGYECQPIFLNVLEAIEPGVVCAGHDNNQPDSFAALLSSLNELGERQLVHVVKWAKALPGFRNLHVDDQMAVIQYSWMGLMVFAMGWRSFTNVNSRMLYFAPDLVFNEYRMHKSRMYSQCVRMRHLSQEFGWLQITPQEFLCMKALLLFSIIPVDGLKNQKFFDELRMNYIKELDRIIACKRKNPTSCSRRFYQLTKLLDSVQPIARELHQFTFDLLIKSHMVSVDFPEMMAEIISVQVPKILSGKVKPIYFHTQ

[18] = Aspartate aminotransferase (AST) levels in ob/ob mice after 13 days of oral dose at 100 mpk b.i.d.; type: ADME; details: mouse, in vivo, 100 mg/kg, 312 h
[19] = Aspartate aminotransferase (AST) levels in ob/ob mice after 13 days of oral dose at 10 mpk b.i.d.; type: ADME; details: mouse, in vivo, 10 mg/kg, 312 h
Mus musculus [20] = species on record: Mus musculus; assay: Initial weight of the ob/ob mice before oral treatment at 100 mpk b.i.d. for 13 days; type: functional
[21] = biological target: T2, Mineralocorticoid receptor (Homo sapiens, UniProt P08235); assay: Inhibition of human mineralocorticoid receptor
T2 sequence (P08235 whole entry): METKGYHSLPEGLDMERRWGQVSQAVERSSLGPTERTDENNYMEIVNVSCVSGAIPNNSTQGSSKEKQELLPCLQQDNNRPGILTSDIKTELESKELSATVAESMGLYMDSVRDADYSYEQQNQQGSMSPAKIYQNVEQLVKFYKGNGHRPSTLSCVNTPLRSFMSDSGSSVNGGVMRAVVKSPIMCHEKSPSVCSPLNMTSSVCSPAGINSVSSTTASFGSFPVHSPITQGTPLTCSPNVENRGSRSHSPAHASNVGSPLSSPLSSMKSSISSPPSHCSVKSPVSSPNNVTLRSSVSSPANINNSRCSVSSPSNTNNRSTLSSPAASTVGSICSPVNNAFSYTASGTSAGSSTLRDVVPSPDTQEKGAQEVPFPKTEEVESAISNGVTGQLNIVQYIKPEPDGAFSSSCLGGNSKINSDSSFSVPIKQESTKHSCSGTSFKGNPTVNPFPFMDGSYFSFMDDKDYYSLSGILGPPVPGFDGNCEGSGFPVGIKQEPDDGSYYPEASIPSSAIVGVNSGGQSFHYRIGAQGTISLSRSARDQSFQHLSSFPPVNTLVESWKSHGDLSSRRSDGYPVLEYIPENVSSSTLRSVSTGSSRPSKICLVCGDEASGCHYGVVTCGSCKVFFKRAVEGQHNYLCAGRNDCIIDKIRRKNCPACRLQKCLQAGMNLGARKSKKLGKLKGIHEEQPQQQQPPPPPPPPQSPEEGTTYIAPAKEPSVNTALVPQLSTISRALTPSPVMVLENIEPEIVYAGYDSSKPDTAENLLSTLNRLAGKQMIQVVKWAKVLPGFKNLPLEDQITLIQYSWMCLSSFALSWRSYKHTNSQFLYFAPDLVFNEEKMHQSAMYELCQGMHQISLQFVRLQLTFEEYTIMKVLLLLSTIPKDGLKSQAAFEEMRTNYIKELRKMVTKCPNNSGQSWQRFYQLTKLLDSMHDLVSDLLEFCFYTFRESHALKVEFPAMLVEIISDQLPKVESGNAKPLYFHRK

Compound	concentration at 7 h [2] [µg/mL]	concentration at 312 h [3] [ng/g]	half-life [6] [h]	concentration at 1 h [7] [µg/mL]	half-life [10] [h]	concentration at 1 h [11] [ng/g]	concentration at 7 h [17] [ng/g]	IC50 (Androgen receptor) [nM]	IC50 [21] [nM]	also measured
Cc1c(NS(C)(=O)=O)cccc1N(Cc1ccc(Oc2ccc(F)c(OCC(=O)O)c2)cc1)Cc1ccc(F)cc1F	0.65	157000	9.1	1.6	2.3	74000	40000	–	–	Level [1]: 44.2 mg/g; AUC [4]: 3850 ng·h/mL; Weight (Mus musculus [5]): 41.5 g; Level [8]: 2660 µg/mL; Level [9]: 2140 µg/mL; Level [12]: 54.6 mg/g; bioavailability [13]: 40%; Level [14]: 8.9%; Level [15]: 1.01 mequiv/L; Weight (Mus musculus [16]): 46.9 g
Cc1c(NS(C)(=O)=O)cccc1N(Cc1ccccc1)Cc1ccc(Oc2ccc(OCC(=O)O)cc2)cc1	0.01	207000	31.1	0.03	8.9	20000	3800	11700	690	Level [18]: 330 units/mL; Level [19]: 420 units/mL; Weight (Mus musculus [20]): 46 g
Cc1c(NS(C)(=O)=O)cccc1N(Cc1ccccc1)Cc1ccc(Oc2cccc(OCCCC(=O)NCCCC(=O)O)c2)cc1	–	–	–	–	–	–	–	1600	120	–
CC#C[C@]1(O)CC[C@H]2[C@@H]3CCC4=CC(=O)CC[C@]4(Cc4ccc(C)cc4)C3=CC[C@@]21C	–	–	–	–	–	–	–	6500	6300	–
Cc1c(NS(C)(=O)=O)cccc1N(Cc1ccc(Oc2ccc(Cl)c(OCC(=O)O)c2)cc1)Cc1ccc(F)cc1F	–	–	–	–	–	–	–	3600	1000	–
